Assay results from paper PMC11983102, “Conjugation to a transferrin receptor 1-binding Bicycle peptide enhances ASO and siRNA potency in skeletal and cardiac muscles” (Nucleic Acids Research, 2025).
Numbered stars: 1 amine (or outer) side, 2 acyl side, 3 side chain; on linkers, the order of the positions; unused ones are H or OH. Bridge positions count the residues as written; N and C are the ends. Peptide text beside a SMILES is read from it. TATB = O=C(C[*:1])N1CN(C(=O)C[*:2])CN(C(=O)C[*:3])C1

How the values were obtained:
human TfR1 = target: T1, human TfR1 (Homo sapiens, UniProt P02786); assay: SPR binding of Bicycle peptides and conjugates to human TfR1; conditions: SPR (Biacore), human TfR1 captured on SA chip, 5-point single cycle kinetics, PBS-P+ 1% DMSO pH 7.4; geometric mean; unconjugated Bicycle peptides
T1 construct: received from Bicycle Therapeutics as His6-tagged TfR1 (a.a. 89-760) (ACROBiosystems, CD1-H5243 and TfR-C524a); His6; purchased ACROBiosystems CD1-H5243
Description: Biacore experiments were performed to determine ka (M^-1s^-1), kd (s^-1), KD (nM) values of various peptides binding to TfR1. […] SPR binding analysis was performed on Biacore T200 and Biacore 8K+ (Cytiva). Human TfR1 and randomly biotinylated cynomolgus monkey TfR1 were captured on Series S Sensor Chip SA (BR100531, Cytiva) at levels of approximately 1000 RU. Using an appropriate top concentration, Bicycle peptides were screened in a 5-point titration curve in single cycle kinetics format at 30 ml/minute. The running buffer was PBS-P^+, 1% DMSO at pH 7.4. The data was solvent-corrected for DMSO bulk effects. In addition, all data was double corrected against the reference flow cell and matched buffer blanks. Data processing and kinetic fitting were performed using Biacore T200 Evaluation Software or Biacore Insight Evaluation. The data was fitted using the 1:1 binding model or steady-state affinity model where appropriate. The geometric mean (geomean) KD (nM) for binders was calculated by transforming unique KD values by log10, arithmetic-mean-averaging the transformed values, and subsequently anti-log-transforming the averaged value.

Mouse plasma stability = format: in vitro ADME
Description: An alanine scan was performed to identify core residues involved in binding to the protein and solvent-facing residues which could be used to tune molecular properties, followed by substitutions with non-natural amino acids to identify suitable replacements at each position. In addition, peptides were synthesized to investigate the removal of the N- and C-terminal alanines, capping the N-terminal with an acetyl group, and to examine the effects of combinations with N- and C-terminal extensions. Affinity was measured using either SPR or fluorescence polarization (FP) assays, and plasma stability in mouse was determined for selected examples. Series of analogues with the azidolysine (K(N3)) or azidopropanoic acid (AzPro) were prepared on the C- and N-terminal of the Bicycle molecules, respectively. These were used to conjugate to an ASO or siRNA for further profiling.

T1 sequence (P02786 89-760): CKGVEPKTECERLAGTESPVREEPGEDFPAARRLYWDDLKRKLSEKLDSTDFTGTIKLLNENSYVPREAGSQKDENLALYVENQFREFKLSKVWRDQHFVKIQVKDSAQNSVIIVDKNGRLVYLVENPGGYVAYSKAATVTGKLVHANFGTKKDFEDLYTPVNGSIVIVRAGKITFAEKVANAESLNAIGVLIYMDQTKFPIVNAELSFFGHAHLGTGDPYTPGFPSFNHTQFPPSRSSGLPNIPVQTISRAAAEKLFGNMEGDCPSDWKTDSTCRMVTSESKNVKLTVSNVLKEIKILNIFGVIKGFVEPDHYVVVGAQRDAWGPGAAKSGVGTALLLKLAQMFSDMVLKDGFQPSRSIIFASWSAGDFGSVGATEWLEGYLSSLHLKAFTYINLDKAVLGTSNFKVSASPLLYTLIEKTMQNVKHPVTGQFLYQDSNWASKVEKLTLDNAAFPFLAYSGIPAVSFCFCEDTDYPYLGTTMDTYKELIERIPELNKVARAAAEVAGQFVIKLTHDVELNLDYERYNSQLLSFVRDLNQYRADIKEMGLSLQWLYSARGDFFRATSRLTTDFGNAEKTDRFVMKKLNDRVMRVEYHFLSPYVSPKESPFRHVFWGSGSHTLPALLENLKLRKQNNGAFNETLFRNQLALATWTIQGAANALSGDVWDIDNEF

Structure (SMILES)	Kd (human TfR1) [nM]	half-life (Mouse plasma stability) [min]
CC[C@H](C)[C@@H]1NC(=O)[C@@H]2CSCC(=O)N3CN(CN(C3)C(=O)CSC[C@@H](C(=O)N[C@@H](C)C(N)=O)NC(=O)[C@H](Cc3ccc(O)cc3)NC(=O)[C@H](CO)NC1=O)C(=O)CSC[C@H](NC(=O)[C@H](C)N)C(=O)N[C@@H](CO)C(=O)N1CCC[C@H]1C(=O)N[C@@H](CC(=O)O)C(=O)N[C@@H](C)C(=O)N[C@@H](Cc1c[nH]cn1)C(=O)N[C@@H](CC(C)C)C(=O)NCC(=O)N2 [BCY15468]	143	
CC[C@H](C)[C@@H]1NC(=O)[C@@H]2CSCC(=O)N3CN(CN(C3)C(=O)CSC[C@H](NC(C)=O)C(=O)N[C@@H](CO)C(=O)N3CCC[C@H]3C(=O)N[C@@H](CC(=O)O)C(=O)N[C@@H](C)C(=O)N[C@@H](Cc3c[nH]cn3)C(=O)N[C@@H](CC(C)C)C(=O)NCC(=O)N2)C(=O)CSC[C@@H](C(N)=O)NC(=O)[C@H](Cc2ccc(O)cc2)NC(=O)[C@H](CO)NC1=O [BCY15891] (Ac-CSPDAHLGCISYC-NH2; linker 1-9-13 via TATB)		1360
CC[C@H](C)[C@@H]1NC(=O)[C@@H]2CSCC(=O)N3CN(CN(C3)C(=O)CSC[C@@H](C(=O)N[C@@H](C)C(N)=O)NC(=O)[C@H](Cc3cccc4ccccc34)NC(=O)[C@H](CO)NC1=O)C(=O)CSC[C@H](NC(=O)[C@H](C)N)C(=O)N[C@@H](CO)C(=O)N1CCC[C@H]1C(=O)N[C@@H](CC(=O)O)C(=O)N[C@@H](C)C(=O)N[C@@H](Cc1c[nH]cn1)C(=O)N[C@@H](CC(C)C)C(=O)NCC(=O)N2 [compound 16029]	60	
CC[C@H](C)[C@@H]1NC(=O)[C@@H]2CSCC(=O)N3CN(CN(C3)C(=O)CSC[C@@H](C(=O)N[C@@H](C)C(N)=O)NC(=O)[C@H](Cc3ccc4ccccc4c3)NC(=O)[C@H](CO)NC1=O)C(=O)CSC[C@H](NC(=O)[C@H](C)N)C(=O)N[C@@H](CO)C(=O)N1CCC[C@H]1C(=O)N[C@@H](CC(=O)O)C(=O)N[C@@H](C)C(=O)N[C@@H](Cc1c[nH]cn1)C(=O)N[C@@H](CC(C)C)C(=O)NCC(=O)N2 [compound 16031]	68	
CC[C@H](C)[C@@H]1NC(=O)[C@@H]2CSCC(=O)N3CN(CN(C3)C(=O)CSC[C@@H](C(=O)N[C@@H](C)C(N)=O)NC(=O)[C@H](Cc3ccc(O)cc3)NC(=O)[C@H](CO)NC1=O)C(=O)CSC[C@H](NC(=O)[C@H](C)N)C(=O)N[C@@H](CO)C(=O)N1C[C@H](O)C[C@H]1C(=O)N[C@@H](CC(=O)O)C(=O)N[C@@H](C)C(=O)N[C@@H](Cc1c[nH]cn1)C(=O)N[C@@H](CC(C)C)C(=O)NCC(=O)N2 [compound 16047]	49	
